From ChEMBL document CHEMBL1201862, “PubChem BioAssay data set” (2004)
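All cell lines were grown in 96-well plates and treated with compound for 48 hours. GI50: concentration for 50% inhibition of growth.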 Activity calls are given as the source filed them. Cut-off read from the data, not from the text of the source: active = GI50 up to about 1.1 µM and inactive = higher.

Assays:
Assay in all cases: DTP human tumour cell line panel, 48 h
[1] = system: UACC-257
[2] = system: UACC-62
[3] = system: NCI-H460
[4] = system: SK-MEL-5
[5] = system: TK-10
[6] = system: T47D
[7] = system: MDA-N
[8] = system: SN12C
[9] = system: NCI-H226
[10] = system: 786-0
[11] = system: UO-31
[12] = system: HOP-62
[13] = system: SF-295
[14] = system: MCF7
[15] = system: SK-MEL-28
[16] = system: HL-60
[17] = system: SF-268
[18] = system: CAKI-1
[19] = system: Malme-3M

Measured: GI50

CC1(C)CC(=O)c2c(nc3ccc4ccccc4c3c2-c2ccc(NC(=O)CCCCCCCCC(=O)Nc3ccc(-c4c5c(nc6ccc7ccccc7c46)CC(C)(C)CC5=O)cc3)cc2)C1
inactive: [1] > 100 µM | [2] > 100 µM | [3] > 100 µM | [4] > 100 µM | [5] > 100 µM | [6] > 100 µM | [7] > 100 µM | [8] > 100 µM | [9] > 100 µM | [10] > 100 µM | [11] > 100 µM | [12] > 100 µM | [13] > 100 µM | [14] > 100 µM | [15] > 100 µM | [16] > 100 µM | [17] > 100 µM | [18] > 100 µM

Cc1cn(CC(=S)NCCc2c[nH]c3ccccc23)c(=O)[nH]c1=O
inactive: [2] 70 µM | [4] 35.5 µM | [6] 34.5 µM | [7] 48 µM | [8] > 100 µM | [9] 33.5 µM | [10] > 100 µM | [11] 87.1 µM | [12] > 100 µM | [19] 69.5 µM | [14] 63.7 µM | [15] > 100 µM | [16] 56.8 µM | [17] > 100 µM

O=S(=O)(c1ccccc1)C1(CCC2OCCO2)C=CC2(CC1)OCCO2 (centres undefined)
inactive: [1] > 100 µM | [2] > 100 µM | [3] > 100 µM | [4] > 100 µM | [5] > 100 µM | [6] > 100 µM | [7] > 100 µM | [8] > 100 µM | [9] > 100 µM | [10] > 100 µM | [11] > 100 µM | [12] > 100 µM | [19] > 100 µM | [13] > 100 µM | [14] > 100 µM | [15] > 100 µM | [16] > 100 µM | [17] > 100 µM

CC(/C=C/c1ccc([N+](=O)[O-])o1)=N/N1CC(CN2CCOCC2)OC1=O (centres undefined)
inactive: [1] 17.5 µM | [2] 17.3 µM | [3] 21.5 µM | [4] 14.7 µM | [5] 45.1 µM | [6] 16.5 µM | [7] 18.6 µM | [8] 25.4 µM | [9] 21.4 µM | [10] 28.1 µM | [11] 21.3 µM | [12] 26.9 µM | [19] 14.7 µM | [13] 86.1 µM | [14] 13.1 µM | [15] 17.3 µM | [16] 25.3 µM | [17] 17.7 µM | [18] 19.4 µM
